Measurements: patent publication US9682994B2, “Inhibitors of retroviral replication” (The Scripps Research Institute, priority 2011, dated 2017)

Tests used:
HIV-1 pNL4-3 = experiment: Viral mRNA expression after acute infection of HeLa-CD4 cells (RT-qPCR); format: cell-based
From the text: FIG. 1E: Analysis of viral mRNA expression. […] First-strand cDNA was synthesized with random primers and target DNA was quantified by qPCR using primers recognizing the env and LTR regions. Results were normalized as copies of viral mRNA per copy of GAPDH mRNA. […] RNA samples not reverse transcribed were used as negative control. Error bars represent standard deviations.
Total RNA extracted four days after acute infection with pNL4-3 (MOI>>1) in the presence of drugs. First-strand cDNA was synthesized with random primers, and quantified by qPCR using primers recognizing the env and LTR regions. Results were normalized as copies of viral mRNA per copy of GAPDH mRNA. The arbitrary value of 1 was assigned to the DMSO control. RNA samples that were not reverse transcribed were used as negative control. Error bars represent standard deviation.
First-strand cDNA from RNA for qPCR was prepared using […]™ first-strand cDNA kit (Invitrogen), following the manufacturer's instructions, using approximately 5 μg of RNA as starting material and random hexamers as first-strand primers. Quantitative PCR was performed with an aliquot of cDNA as template, using […]® 480 SYBR Green I Master (Roche) in a 20 μL reaction according to the manufacturer's instructions. […] The primers used were as follows: […]
PIs show low efficacy in this short 48 h assay as they act only upon spreading from the initial infection. […] The results were similar when viral production was determined by RT-PCR of viral RNA in HeLa-CD4 cells infected and treated for four days with one compound from each class of inhibitors (FIG. 5E).

NF-kB reporter construct = experiment: TNF-α activation of NF-kB luciferase reporter in TE671 cells; format: cell-based
Description: FIG. 8B: TE671 cells were transfected with an NF-kB luciferase reporter plasmid. The following day cells were treated with TNF-α in presence or absence of dCA. Cells were lysed 5 hours later and Luciferase activity was measured as in FIG. 8A.
TE671 cells were plated at 6.25×10^4 per well in a 24-well plate. Cells were transfected twenty-four hours later with either 200 ng or 400 ng of NF-kB-Luc (Promega, Cat No. E8491) using Fugene 6 (Roche) per manufacturer's instruction. […] Cells were lysed 5 hours later with 1× Lysis Buffer and luciferase activity was measured using the luciferase Assay System (Promega) on a Berthhold luminometer. Protein concentration was determined by Bradford assay. Results corresponding to the adjustment of the luciferase activity per protein concentration of each sample are shown as Relative light units (RLU). Experiments were performed in triplicate.

HIV-2 (ROD/A) = experiment: Chronic HIV-2 replication in HeLa-CD4 cells, p24 ELISA; format: cell-based; conditions: p24, 7 days; read-out: EC50, chronic infection by HIV-2
From the text: Antigen p24 in the supernatant measured as in FIG. 5F, 7 days post-infection.

PBMCs = experiment: Viability of uninfected PBMCs (MTT, ViViD/Annexin V); format: cell-based, human
Description: FIG. 13A: Mitochondrial metabolic activity.
Viability was measured after 24 h and 72 h of culture. PBMCs were stained with FITC-labeled antibody to CD3 (555339), Alexa 700-labeled antibody to CD4 (557922), PerCP-Cy5.5-labeled antibody to CD8 (341051), V450-labeled antibody to CD14 (560349), V450-labeled antibody to CD19 (560353), APC-labeled antibody to AnnexinV (550474) and Live/Dead Aqua blue (L34957). All antibodies were purchased from BD Biosciences except for Live/Dead Aqua blue (Invitrogen). Analyses were performed on a LSRII (BD Bioscience) flow cytometer.

For `CN(C)[C@H]1C[C@@]23CC[C@@]4(O2)C(=CC[C@]2(C)C(c5ccc6ccncc6c5)=CC[C@H]24)C=C3[C@@H](O)[C@@H]1O` [dCA, didehydro-Cortistatin A], the “maximum inhibition, viral RNA” value (HIV-1 pNL4-3; HeLa-CD4 infected and treated for four days) was “around 80%”, the EC50 (HIV-1 pNL4-3; HeLa-CD4 infected and treated for four days, read-out: EC50, viral production by RT-PCR of viral RNA) was < 0.1 nM and the “total amount of viral RNA in infected cells” value (HIV-1 pNL4-3; acute infection, increasing concentrations) was “drastic dose-dependent reduction”. The “TNFα activation of an NF-κB reporter construct” value (NF-kB reporter construct) was “no effect”, the EC50 (HIV-2 (ROD/A)) was ~1.7 nM and the CC50 (PBMCs) was 100000 nM.
